Measured values published in US12180248B2, “Compositions and methods for treating CNS disorders” (Sage Therapeutics, Inc., priority 2014, dated 2024).

molecular target: rat brain cortical membranes ([35S]-TBPS binding; GABAA receptor); assay: Steroid inhibition of [35S]-TBPS binding (radioligand displacement); conditions: 3 nM [35S]-TBPS, in the presence of 5 μM GABA, 90 min at room temp
Description: TBPS binding assays using rat brain cortical membranes in the presence of […] GABA has been described (Gee et al, J. Pharmacol. Exp. Ther. 1987, 241, 346-353; Hawkinson et al, Mol. Pharmacol. 1994, 46, 977-985; Lewin, A. H et al., Mol. Pharmacol. 1989, 35, 189-194).
Briefly, cortices are rapidly removed following decapitation of carbon dioxide-anesthetized Sprague-Dawley rats (200-250 g). The cortices are homogenized in 10 volumes of ice-cold 0.32 M sucrose using a glass/teflon homogenizer and centrifuged at 1500×g for 10 min at 4° C. The resultant supernatants are centrifuged at 10,000×g for 20 min at 4° C.; to obtain the P2 pellets. The P2 pellets are resuspended in 200 mM NaCl/50 mM Na—K phosphate pH 7.4 buffer and centrifuged at 10,000×g for 10 min at 4° C. This washing procedure is repeated twice and the pellets are resuspended in 10 volumes of buffer. Aliquots (100 μL) of the membrane suspensions are incubated with 3 nM [^35S]-TBPS and 5 μL aliquots of test drug dissolved in dimethyl sulfoxide (DMSO) (final 0.5%) in the presence of 5 μM GABA. The incubation is brought to a final volume of 1.0 mL with buffer. Nonspecific binding is determined in the presence of 2 μM unlabeled TBPS and ranged from 15 to 25%. Following a 90 min incubation at room temp, the assays are terminated by filtration through glass fiber filters (Schleicher and Schuell No. 32) using a cell harvester (Brandel) and rinsed three times with ice-cold buffer. Filter bound radioactivity is measured by liquid scintillation spectrometry. Non-linear curve fitting of the overall data for each drug averaged for each concentration is done using Prism (GraphPad). […] The concentration of test compound producing 50% inhibition (IC50) of specific binding and the maximal extent of inhibition (Imax) are determined for the individual experiments with the same model used for the overall data and then the means±SEM.s of the individual experiments are calculated.
Various compounds are or can be screened to determine their potential as modulators of [^35S]-TBPS binding in vitro. These assays are or can be performed in accordance with the above discussed procedures.

Row | SMILES | IC50 [nM]
1 | C[C@H](C(=O)[C@H]1CC[C@H]2[C@@H]3CC[C@@H]4C[C@](C)(O)CC[C@@H]4[C@H]3CC[C@]12C)n1nccn1 [Compound 1, (R)-1-((3R,5R,8R,9R,10S,13S,14S,17S)-3-hydroxy-3,13-dimethylhexadecahydro-1H-cyclopenta[a]phenanthren-17-yl)-2-(2H-1,2,3-triazol-2-yl)propan-1-one] | 250 to 500
2 | C[C@@H](C(=O)[C@H]1CC[C@H]2[C@@H]3CC[C@@H]4C[C@](C)(O)CC[C@@H]4[C@H]3CC[C@]12C)n1nccn1 [Compound 2, (S)-1-((3R,5R,8R,9R,10S,13S,14S,17S)-3-hydroxy-3,13-dimethylhexadecahydro-: 1H-cyclopenta[a]phenanthren-17-yl)-2-(2H-1,2,3-triazol-2-yl)propan-1-one] | 50 to 100
3 | C[C@@H](C(=O)[C@H]1CC[C@H]2[C@@H]3CC[C@@H]4C[C@](C)(O)CC[C@@H]4[C@H]3CC[C@]12C)n1cc(C#N)cn1 [Compound 3, 1-((S)-1-((3R,5R,8R,9R,10S,13S,14S,17S)-3-hydroxy-3,13-dimethylhexadecahydro-1H-cyclopenta[a]phenanthren-17-yl)-1-oxopropan-2-yl)-1H-pyrazole-4-carbonitrile] | < 50
4 | C[C@H](C(=O)[C@H]1CC[C@H]2[C@@H]3CC[C@@H]4C[C@](C)(O)CC[C@@H]4[C@H]3CC[C@]12C)n1cc(C#N)cn1 [Compound 4, 1-((R)-1-((3R,5R,8R,9R,10S,13S,14S,17S)-3-hydroxy-3,13-dimethylhexadecahydro-1H-cyclopenta[a]phenanthren-17-yl)-1-oxopropan-2-yl)-1H-pyrazole-4-carbonitrile] | 50 to 100
5 | CC(C(=O)[C@H]1CC[C@H]2[C@@H]3CC[C@@H]4C[C@](C)(O)CC[C@@H]4[C@H]3CC[C@]12C)N1CCOCC1 (stereo partly drawn) [Compound 5, 1-((3R,5R,8R,9R,10S,13S,14S,17S)-3-hydroxy-3,13-dimethylhexadecahydro-1H-cyclopenta[a]phenanthren-17-yl)-2-morpholinopropan-1-one] | 250 to 500
6 | C[C@@H](C(=O)[C@H]1CC[C@H]2[C@@H]3CC[C@@H]4C[C@](C)(O)CC[C@@H]4[C@H]3CC[C@]12C)n1nc2ccccc2n1 [Compound 6, (S)-2-(2H-benzo[d][1,2,3]triazol-2-yl)-1-((3R,5R,8R,9R,10S,13S,14S,17S)-3-hydroxy-3,1:3-dimethylhexadecahydro-1H-cyclopenta[a]phenanthren-17-yl)propan-1-one] | < 50
7 | C[C@H](C(=O)[C@H]1CC[C@H]2[C@@H]3CC[C@@H]4C[C@](C)(O)CC[C@@H]4[C@H]3CC[C@]12C)n1nc2ccccc2n1 [Compound 7, (R)-2-(2H-benzo[d][1,2,3]triazol-2-yl)-1-((3R,5R,8R,9R,10S,13S,14S,17S)-3-hydroxy-3,13-dimethylhexadecahydro-1H-cyclopenta[a]phenanthren-17-yl)propan-1-one] | 250 to 500
